Laboratory results reported in patent US20060216330A1, “Peptides having an ace inhibiting effect” (priority 2003, published 2006).
Where two headings read alike, the source gives them in different places. Ends that are not written are not given here. Peptide text beside a SMILES is read from it.

Legend:
[1] = test system: spontaneously hypertensive rats; settings: Abubakar et al., 1998; cited from earlier work
[2] = biological target: ACE (Homo sapiens, UniProt P12821); assay: ACE activity measurement with fluorogenic substrate Abz-FRK(Dnp)P-OH
[3] = In vitro gastro-intestinal digestion of Biozate (artificial human gastro intestinal tract)

Chain of ACE (P12821 30-1306, species assumed): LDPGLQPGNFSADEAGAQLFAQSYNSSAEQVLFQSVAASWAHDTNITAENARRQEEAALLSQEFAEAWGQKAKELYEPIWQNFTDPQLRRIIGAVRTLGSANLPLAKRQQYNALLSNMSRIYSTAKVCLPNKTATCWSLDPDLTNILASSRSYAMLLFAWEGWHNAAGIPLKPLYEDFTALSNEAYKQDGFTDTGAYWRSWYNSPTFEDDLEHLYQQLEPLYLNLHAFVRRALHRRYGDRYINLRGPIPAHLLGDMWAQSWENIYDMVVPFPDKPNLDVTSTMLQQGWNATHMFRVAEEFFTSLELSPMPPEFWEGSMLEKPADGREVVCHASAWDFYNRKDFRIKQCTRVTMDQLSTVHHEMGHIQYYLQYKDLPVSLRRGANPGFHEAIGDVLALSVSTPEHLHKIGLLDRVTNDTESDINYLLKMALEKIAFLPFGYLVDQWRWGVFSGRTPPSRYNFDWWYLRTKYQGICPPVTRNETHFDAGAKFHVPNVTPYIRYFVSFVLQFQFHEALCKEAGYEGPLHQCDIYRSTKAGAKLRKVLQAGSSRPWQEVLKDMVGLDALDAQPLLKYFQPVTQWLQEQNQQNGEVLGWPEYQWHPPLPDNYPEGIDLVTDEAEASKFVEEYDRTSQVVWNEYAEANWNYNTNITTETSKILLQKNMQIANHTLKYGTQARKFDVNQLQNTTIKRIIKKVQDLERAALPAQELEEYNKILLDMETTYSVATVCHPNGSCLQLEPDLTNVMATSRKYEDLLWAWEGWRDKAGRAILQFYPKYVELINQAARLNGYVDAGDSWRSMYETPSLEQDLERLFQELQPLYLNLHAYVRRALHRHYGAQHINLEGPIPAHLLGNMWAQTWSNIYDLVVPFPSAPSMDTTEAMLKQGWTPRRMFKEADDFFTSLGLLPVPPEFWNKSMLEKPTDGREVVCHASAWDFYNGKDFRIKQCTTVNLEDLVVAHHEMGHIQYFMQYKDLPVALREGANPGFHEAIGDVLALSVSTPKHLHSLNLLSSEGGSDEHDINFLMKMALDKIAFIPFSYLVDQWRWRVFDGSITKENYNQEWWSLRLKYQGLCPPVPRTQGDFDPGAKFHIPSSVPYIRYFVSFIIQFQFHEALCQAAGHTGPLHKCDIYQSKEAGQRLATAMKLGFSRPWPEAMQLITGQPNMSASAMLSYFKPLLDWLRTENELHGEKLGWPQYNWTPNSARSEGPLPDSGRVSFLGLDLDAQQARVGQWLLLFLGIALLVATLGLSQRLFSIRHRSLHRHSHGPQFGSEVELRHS

| Compound | antihypertensive activity [1] | IC50 [2] [µM] | Concentration, Original solution ([3]; Biozate original solution before digestion) [ng/mL] | Concentration, t = 0 min ([3]; t = 0 min, simulated gastric fluid pH 3.5, 37° C.) [ng/mL] | Concentration, t = 60 min ([3]; t = 60 min, end of gastric phase) [ng/mL] | Concentration, t = 65 min ([3]; t = 65 min, simulated intestinal fluid (pancreatin, pH 6.8)) [ng/mL] | Concentration, t = 75 min ([3]; t = 75 min, simulated intestinal fluid) [ng/mL] | Concentration, t = 90 min ([3]; t = 90 min, simulated intestinal fluid) [ng/mL] | Concentration, t = 120 min ([3]; t = 120 min, simulated intestinal fluid) [ng/mL] | Concentration, t = 150 min ([3]; t = 150 min, simulated intestinal fluid) [ng/mL] | Concentration, t = 180 min ([3]; t = 180 min, simulated intestinal fluid) [ng/mL] | Concentration, t = 0 min (pH 3.5) [ng/mL] | Concentration, t = 65 min (pH 6.8) [ng/mL] |
| --- | --- | --- | --- | --- | --- | --- | --- | --- | --- | --- | --- | --- | --- |
| CC[C@H](C)[C@H](N)C(=O)N1CCC[C@H]1C(=O)N[C@@H](C)C(=O)O [IPA] (H-Ile-Pro-Ala-OH; N-terminus and C-terminus assumed) | has antihypertensive activity | 50 | 0 | 0 | 0 | 9000 | 9000 | 9000 | 9000 | 14000 | 17000 | – | – |
| IPAVFK [IPAVFK] | – | 120 | – | – | – | – | – | – | – | – | – | 26000 | 3000 |
